Measurements reported in patent publication US20250171432A1, “COMPOUNDS AND METHODS OF USE” (Tango Therapeutics, Inc., priority 2022, published 2025).

Columns and labels:
Format in all cases: cell-based
[1] = test system: SDMA (PRMT5 activity) in HAP1 MTAP-intact cell line; experiment: SDMA in-cell western assay, HAP1 MTAP-intact; details: Homo sapiens, SDMA in-cell western, HAP1 MTAP-intact cells, 24 hours compound incubation
[2] = test system: SDMA (PRMT5 activity) in HAP1 MTAP-deleted cell line; experiment: SDMA in-cell western assay, HAP1 MTAP-deleted; details: for IC50 / IC90: Homo sapiens, SDMA in-cell western, HAP1 MTAP-deleted cells, 24 hours compound incubation; for Hap1 MTAP intact/deleted ratio: ratio of SDMA IC50 in HAP1 MTAP-intact to HAP1 MTAP-deleted cell line
[3] = test system: HAP1 MTAP-deleted cell line; experiment: Viability assay (CellTiter-Glo), HAP1 MTAP-deleted; details: Homo sapiens, 168 h, HAP1 MTAP-deleted cells, 7 days
How it was run: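 HAP1 MTAP-deleted and MTAP-intact cells seeded, then dosed next day (n=3, 0.2% DMSO) and grown 7 days. Viability by CellTiter-Glo luminescence, expressed as % of DMSO control per cell line.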

SMILES | IC50 ([1]; HAP1, 24 h) [nM] | IC50 [2] [nM] | IC90 [2] [nM] | Hap1 MTAP intact/deleted ratio [2] | IC50 [3] [nM] | IC50 [1] [nM]
COc1ncc(NC(=O)C(=O)N2C[C@@H](C)CC[C@@H]2c2ccc3ccc(N4CCN(C)CC4)nc3c2)cc1C(N)=O [Compound 126, 2-methoxy-5-(2-((2R,5S)-5-methyl-2-(2-(4-methylpiperazin-1-yl)quinolin-7-yl)piperidin-1-yl)-2-oxoacetamido)nicotinamide] | > 50 | < 5 | < 75 | A (“A” indicates an IC50 ratio greater than or equal to 30 fold) | < 100 | 
COc1ncc(NC(=O)C(=O)N2C[C@@H](C)CC[C@@H]2c2cccc(OC[C@@H](C)N(C)C)c2)cc1C(N)=O [Compound 49, 5-(2-((2R,5S)-2-(3-((R)-2-(dimethylamino)propoxy)phenyl)-5-methylpiperidin-1-yl)-2-oxoacetamido)-2-methoxynicotinamide] | > 50 | < 5 | < 75 | A (“A” indicates an IC50 ratio greater than or equal to 30 fold) | 100 to 1000 | 
COc1ncc(NC(=O)C(=O)N2C[C@@H](C)CC[C@@H]2c2ccc3cn([C@H]4CCN(C)C4)nc3c2)cc1C(N)=O [Compound 103, 2-methoxy-5-(2-((2R,5S)-5-methyl-2-(2-((S)-1-methylpyrrolidin-3-yl)-2H-indazol-6-yl)piperidin-1-yl)-2-oxoacetamido)nicotinamide] | > 50 | < 5 | < 75 | A (“A” indicates an IC50 ratio greater than or equal to 30 fold) | < 100 | 
CCc1cc(NC(=O)C(=O)N2C[C@@H](C)CC[C@@H]2c2ccc3sc([C@H]4CN5CC[C@@H]4C5)nc3c2)cnc1N (racemic) [Compound 21, 2-((2R,5S)-2-(2-(1-azabicyclo[2.2.1]heptan-3-yl)benzo[d]thiazol-5-yl)-5-methylpiperidin-1-yl)-N-(6-amino-5-ethylpyridin-3-yl)-2-oxoacetamide] | 5 to 50 | < 5 | < 75 | C (“C” indicates an IC50 ratio of less than 15 fold) | < 100 | 
CCc1cc(NC(=O)C(=O)N2C[C@@H](C)CC[C@@H]2c2ccc3cn([C@H]4CCN(C)C[C@H]4C)nc3c2)cnc1N [Compound 42] | > 50 | < 5 | < 75 | B (“B” indicates an IC50 ratio greater than or equal to 15 fold but lower than 30 fold) | < 100 | 
CCc1cc(NC(=O)C(=O)N2C[C@@H](C)CC[C@@H]2c2ccc3sc(C4CC(C5CN(C)C5)C4)nc3c2)cnc1N (stereo partly drawn) [Compound 100, N-(6-amino-5-ethylpyridin-3-yl)-2-((2R,5S)-5-methyl-2-(2-(3-(1-methylazetidin-3-yl)cyclobutyl)benzo[d]thiazol-5-yl)piperidin-1-yl)-2-oxoacetamide] | 5 to 50 | < 5 | < 75 | B (“B” indicates an IC50 ratio greater than or equal to 15 fold but lower than 30 fold) | < 100 | 
CCc1cc(NC(=O)C(=O)N2C[C@@H](C)CC[C@@H]2c2ccc3sc([C@H]4C[C@@H]5CN(C)C[C@@H]5C4)nc3c2)cnc1N (single isomer, unassigned) [Compound 33] | > 50 | < 5 | < 75 | A (“A” indicates an IC50 ratio greater than or equal to 30 fold) | < 100 | 
COc1ncc(NC(=O)C(=O)N2C[C@@H](C)CC[C@@H]2c2ccc3sc(C45CCN(CC4)C5)nc3c2)cc1C(N)=O [Compound 81, 5-(2-((2R,5S)-2-(2-(1-azabicyclo[2.2.1]heptan-4-yl)benzo[d]thiazol-5-yl)-5-methylpiperidin-1-yl)-2-oxoacetamido)-2-methoxynicotinamide] | > 50 | < 5 | < 75 | A (“A” indicates an IC50 ratio greater than or equal to 30 fold) | < 100 | 
CCc1cc(NC(=O)C(=O)N2C[C@@H](C)CC[C@@H]2c2ccc3sc(C4CN(C)C(C)(C)C4)nc3c2)cnc1N (mixture of isomers) [Compound 13, N-(6-amino-5-ethylpyridin-3-yl)-2-((2R,5S)-5-methyl-2-(2-(1,5,5-trimethylpyrrolidin-3-yl)benzo[d]thiazol-5-yl)piperidin-1-yl)-2-oxoacetamide] | 5 to 50 | < 5 | < 75 | C (“C” indicates an IC50 ratio of less than 15 fold) | < 100 | 
CCc1cc(NC(=O)C(=O)N2C[C@@H](C)CC[C@@H]2c2ccc3cc(C4CCN(C)CC4)cnc3c2)cnc1N [Compound 95, N-(6-amino-5-ethylpyridin-3-yl)-2-((2R,5S)-5-methyl-2-(3-(1-methylpiperidin-4-yl)quinolin-7-yl)piperidin-1-yl)-2-oxoacetamide] | 5 to 50 | < 5 | < 75 | B (“B” indicates an IC50 ratio greater than or equal to 15 fold but lower than 30 fold) | < 100 | 
COc1ncc(NC(=O)C(=O)N2C[C@@H](C)CC[C@@H]2c2ccc3cn(CCN(C)C)nc3c2)cc1C(N)=O [Compound 7, 2-methoxy-5-[[2-oxo-2-[(2R,5S)-2-[2-[2-(dimethylamino)ethyl]indazol-6-yl]-5-methyl-1-piperidyl]acetyl]amino]pyridine-3-carboxamide] | > 50 | 5 to 50 | < 75 | A (“A” indicates an IC50 ratio greater than or equal to 30 fold) | < 100 | 
CCc1cc(NC(=O)C(=O)N2C[C@@H](C)CC[C@@H]2c2ccc3sc([C@@H]4CCN(C)CC4(C)C)nc3c2)cnc1N [Compound 79, N-(6-amino-5-ethylpyridin-3-yl)-2-((5S)-5-methyl-2-(2-(1,3,3-trimethylpiperidin-4-yl)benzo[d]thiazol-5-yl)piperidin-1-yl)-2-oxoacetamide] | 5 to 50 | < 5 | < 75 | C (“C” indicates an IC50 ratio of less than 15 fold) | < 100 | 
CCc1cc(NC(=O)C(=O)N2C[C@@H](C)CC[C@@H]2c2ccc3sc([C@@H]4CCN(C)C[C@H]4OC)nc3c2)cnc1N (single isomer, unassigned) [Compound 101] | 5 to 50 | < 5 | < 75 | B (“B” indicates an IC50 ratio greater than or equal to 15 fold but lower than 30 fold) | < 100 | 
C[C@H]1CC[C@H](c2ccc3scnc3c2)N(C(=O)C(=O)Nc2cnc(N)c(I)c2)C1 [Compound 51, N-(6-amino-5-iodopyridin-3-yl)-2-((2R,5S)-2-(benzo[d]thiazol-5-yl)-5-methylpiperidin-1-yl)-2-oxoacetamide] |  | < 5 | 75 to 125 | A (“A” indicates an IC50 ratio greater than or equal to 30 fold) | 100 to 1000 | > 50
CCc1cc(NC(=O)C(=O)N2C[C@@H](C)CC[C@@H]2c2ccc3sc([C@@H]4C[C@@H](C)N(C)C4)nc3c2)cnc1N (mixture of isomers) [Compound 4, N-(6-amino-5-ethyl-3-pyridyl)-2-oxo-2-[(2R,5S)-5-methyl-2-[2-[rac-(3R,5R)-1,5-dimethylpyrrolidin-3-yl]-1,3-benzothiazol-5-yl]-1-piperidyl]acetamide] | > 50 | < 5 | < 75 | A (“A” indicates an IC50 ratio greater than or equal to 30 fold) | < 100 | 
C[C@H]1CC[C@H](c2ccc3sc(C4CCN(C)CC4)nc3c2)N(C(=O)C(=O)Nc2cnc(F)c(C(N)=O)c2)C1 [Compound 8, 2-fluoro-5-(2-((2R,5S)-5-methyl-2-(2-(1-methylpiperidin-4-yl)benzo[d]thiazol-5-yl)piperidin-1-yl)-2-oxoacetamido)nicotinamide] | > 50 | < 5 | < 75 | B (“B” indicates an IC50 ratio greater than or equal to 15 fold but lower than 30 fold) | < 100 | 
COc1ncc(NC(=O)C(=O)N2C[C@@H](C)CC[C@@H]2c2ccc3sc([C@H]4C[C@@H](N(C)C)C4)nc3c2)cc1C(N)=O (single isomer, unassigned) [Compound 24] | > 50 | < 5 | < 75 | A (“A” indicates an IC50 ratio greater than or equal to 30 fold) | < 100 | 
COc1ncc(NC(=O)C(=O)N2C[C@@H](C)CC[C@@H]2c2ccc3sc([C@@H]4C[C@@H]5CN(C)C[C@@H]5C4)nc3c2)cc1C(N)=O (single isomer, unassigned) [Compound 82] | > 50 | < 5 | < 75 | A (“A” indicates an IC50 ratio greater than or equal to 30 fold) | < 100 | 
CCc1cc(NC(=O)C(=O)N2C[C@@H](C)CC[C@@H]2c2ccc3sc([C@H]4C[C@H](N(C)C)C4)nc3c2)cnc1N (single isomer, unassigned) [Compound 43] | > 50 | < 5 | < 75 | A (“A” indicates an IC50 ratio greater than or equal to 30 fold) | < 100 | 
